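Growth conditions: 96-well plates. Treatment: test compound, 48 hours, 5 concentrations. Analysis: linear interpolation between bracketing concentrations; unreached endpoints set to highest concentration. GI50 is the concentration that inhibits growth by half. TGI marks complete inhibition of growth.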
Legend:
Assay in all cases: NCI anticancer screen, dose series, 48 h
[1] = system: LOX IMVI melanoma
[2] = system: OVCAR-8 ovarian
[3] = system: KM12 colon
[4] = system: OVCAR-4 ovarian
[5] = system: MDA-MB-231 breast
[6] = system: IGROV1 ovarian
[7] = system: COLO 205 colon
[8] = system: NCI/ADR-RES ovarian
[9] = system: SF-268 CNS
[10] = system: TK-10 renal

Structure (SMILES): O=C(Nc1ccc2c(c1)OCO2)C(=O)c1c[nH]c2cc(F)ccc12
- GI50 [1]: 0.476 µM
- TGI [1]: > 100 µM
- GI50 [2]: 3.89 µM
- TGI [2]: 23.6 µM
- GI50 [3]: 0.389 µM
- TGI [3]: 13.7 µM
- GI50 [4]: 1.9 µM
- TGI [4]: > 100 µM
- GI50 [5]: 2.12 µM
- TGI [5]: 25.4 µM
- GI50 [6]: 12.6 µM
- TGI [6]: > 100 µM
- GI50 [7]: 13.5 µM
- TGI [7]: > 100 µM
- GI50 [8]: 1.47 µM
- TGI [8]: 22.9 µM
- GI50 [9]: 4.52 µM
- TGI [9]: 22.1 µM
- GI50 [10]: 7.04 µM
- TGI [10]: 25.4 µM

Structure (SMILES): O=C1C(=O)N(c2cccc(C(F)(F)F)c2)C(=O)C(=O)C1c1nc2ccccc2s1
- TGI [1]: > 100 µM
- TGI [2]: > 53.8 µM
- TGI [3]: > 100 µM
- TGI [4]: > 100 µM
- TGI [5]: > 100 µM
- TGI [6]: > 100 µM
- TGI [7]: > 100 µM
- TGI [8]: > 100 µM
- TGI [9]: > 100 µM
- TGI [10]: > 100 µM

Structure (SMILES): CSc1ccc(C2=NN(C(C)=O)C(c3ccc(F)cc3)C2)cc1 (centres undefined)
- GI50 [1]: 10.8 µM
- TGI [1]: 23.2 µM
- GI50 [2]: 19.4 µM
- TGI [2]: 42 µM
- GI50 [3]: 12.8 µM
- TGI [3]: 36.5 µM
- GI50 [4]: 15.9 µM
- TGI [4]: 37.5 µM
- GI50 [5]: 10.7 µM
- TGI [5]: 28.6 µM
- GI50 [6]: 7.73 µM
- TGI [6]: 34.8 µM
- GI50 [7]: 13.2 µM
- TGI [7]: 31.4 µM
- GI50 [8]: 16.4 µM
- TGI [8]: 32.9 µM
- GI50 [9]: 14.9 µM
- TGI [9]: 42.5 µM
- GI50 [10]: 19.8 µM
- TGI [10]: 63.7 µM

Structure (SMILES): CN1CCN(Cc2ccc(NC(=O)c3cncc(C#Cc4cnn5ccccc45)c3)cc2C(F)(F)F)CC1
- GI50 [1]: 0.588 µM
- TGI [1]: 1.37 µM
- GI50 [2]: 1.22 µM
- TGI [2]: 4.68 µM
- GI50 [3]: 0.016 µM
- TGI [3]: 1.14 µM
- GI50 [4]: 0.445 µM
- TGI [4]: 2.95 µM
- GI50 [5]: 0.608 µM
- TGI [5]: 3.05 µM
- GI50 [6]: 0.858 µM
- TGI [6]: 3.61 µM
- GI50 [7]: 0.291 µM
- TGI [7]: 1.05 µM
- GI50 [8]: 1.4 µM
- TGI [8]: 5.51 µM
- GI50 [9]: 1.05 µM
- TGI [9]: 2.54 µM
- GI50 [10]: 1.61 µM
- TGI [10]: 4.13 µM

Structure (SMILES): CN(O)C(=S)c1ccccc1
- TGI [1]: 7.76 µM
- TGI [2]: 33.2 µM
- TGI [3]: 31.8 µM
- TGI [4]: 19.6 µM
- TGI [5]: > 24.9 µM
- TGI [6]: 56.3 µM
- TGI [7]: 1.75 µM
- TGI [8]: 7.88 µM
- TGI [9]: > 100 µM
- TGI [10]: > 100 µM

Structure (SMILES): O=C(Cn1c(C(=O)c2ccccc2)nc2ccccc21)c1ccc(F)cc1
- GI50 [1]: 7.26 µM
- TGI [1]: > 100 µM
- GI50 [2]: 37.4 µM
- TGI [2]: > 100 µM
- GI50 [3]: 2.48 µM
- TGI [3]: > 100 µM
- GI50 [4]: 24.6 µM
- TGI [4]: > 100 µM
- GI50 [5]: 15.7 µM
- TGI [5]: > 100 µM
- GI50 [6]: 10.9 µM
- TGI [6]: > 100 µM
- GI50 [7]: 17.9 µM
- TGI [7]: > 64.5 µM
- GI50 [8]: 3.47 µM
- TGI [8]: > 29.4 µM
- GI50 [9]: 19.6 µM
- TGI [9]: > 100 µM
- GI50 [10]: 14.2 µM
- TGI [10]: > 100 µM

Structure (SMILES): O=c1c(-c2ccc(O)cc2)coc2cc(OC3OC(CO)C(O)C(O)C3O)cc(O)c12 (centres undefined)
- TGI [1]: > 100 µM
- TGI [2]: > 100 µM
- TGI [3]: > 100 µM
- GI50 [4]: > 100 µM
- TGI [4]: > 100 µM
- TGI [5]: > 100 µM
- GI50 [6]: > 100 µM
- TGI [6]: > 100 µM
- GI50 [7]: > 100 µM
- TGI [7]: > 100 µM
- TGI [8]: > 10 µM
- GI50 [9]: > 10 µM
- TGI [9]: > 100 µM
- TGI [10]: > 100 µM

Structure (SMILES): CC[C@@H](C)Nc1cc(C(=O)NC2CC3CCC(C2)N3c2ccc(C(=O)C3CC3)cn2)c(C)cc1C(N)=O (some centres undefined)
- GI50 [1]: 0.0301 µM
- TGI [1]: 0.102 µM
- GI50 [2]: 0.047 µM
- TGI [2]: > 100 µM
- GI50 [3]: 0.0239 µM
- TGI [3]: 0.0884 µM
- GI50 [4]: 1.31 µM
- TGI [4]: > 100 µM
- GI50 [5]: 0.0538 µM
- TGI [5]: > 100 µM
- GI50 [6]: 0.0436 µM
- TGI [6]: > 100 µM
- GI50 [7]: 0.0182 µM
- TGI [7]: 11.6 µM
- GI50 [8]: 1.06 µM
- TGI [8]: > 100 µM
- GI50 [9]: 0.357 µM
- TGI [9]: > 100 µM
- GI50 [10]: 0.0387 µM
- TGI [10]: 89 µM

From PubChem BioAssay (NCI)
